Assay [1] deals with T1, androgen receptor (AR-LBD) (Rattus norvegicus, UniProt P15207).
T1 construct: 5 μL of 2×AR-LBD/Fluoromone AL Red Complex contained in the kit; purchased Invitrogen
T1 sequence (P15207 651-882 limits assumed): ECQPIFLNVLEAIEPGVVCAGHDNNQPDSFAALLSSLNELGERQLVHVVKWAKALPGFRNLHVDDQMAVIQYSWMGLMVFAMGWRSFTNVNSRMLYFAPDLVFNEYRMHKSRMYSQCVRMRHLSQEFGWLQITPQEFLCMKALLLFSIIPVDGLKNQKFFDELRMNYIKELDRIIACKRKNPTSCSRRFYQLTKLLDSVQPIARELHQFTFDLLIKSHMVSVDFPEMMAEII
Put plainly: Evaluation of androgen receptor affinity (PolarScreen Androgen Receptor Competitor Assay Kit, Red; fluorescence polarization). As to conditions: 22° C. for 5 hours, relative to binding rate of 1 μM DHT, read-out: AR affinity (pEC50) (converted). In short, it runs like this:
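Test compound and the 2× AR-LBD/Fluoromone AL Red complex were combined in duplicate wells. After reacting 5 h at 22° C, polarization was measured. pEC50 was derived by 4-parameter fitting, normalizing to binding obtained with 1 μM dihydrotestosterone.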

The target in another assay is T2, human androgen receptor (Homo sapiens, UniProt P10275).
T2 construct: expressed in transfected cells; host or cells: HEK293
T2 sequence (P10275 1-920): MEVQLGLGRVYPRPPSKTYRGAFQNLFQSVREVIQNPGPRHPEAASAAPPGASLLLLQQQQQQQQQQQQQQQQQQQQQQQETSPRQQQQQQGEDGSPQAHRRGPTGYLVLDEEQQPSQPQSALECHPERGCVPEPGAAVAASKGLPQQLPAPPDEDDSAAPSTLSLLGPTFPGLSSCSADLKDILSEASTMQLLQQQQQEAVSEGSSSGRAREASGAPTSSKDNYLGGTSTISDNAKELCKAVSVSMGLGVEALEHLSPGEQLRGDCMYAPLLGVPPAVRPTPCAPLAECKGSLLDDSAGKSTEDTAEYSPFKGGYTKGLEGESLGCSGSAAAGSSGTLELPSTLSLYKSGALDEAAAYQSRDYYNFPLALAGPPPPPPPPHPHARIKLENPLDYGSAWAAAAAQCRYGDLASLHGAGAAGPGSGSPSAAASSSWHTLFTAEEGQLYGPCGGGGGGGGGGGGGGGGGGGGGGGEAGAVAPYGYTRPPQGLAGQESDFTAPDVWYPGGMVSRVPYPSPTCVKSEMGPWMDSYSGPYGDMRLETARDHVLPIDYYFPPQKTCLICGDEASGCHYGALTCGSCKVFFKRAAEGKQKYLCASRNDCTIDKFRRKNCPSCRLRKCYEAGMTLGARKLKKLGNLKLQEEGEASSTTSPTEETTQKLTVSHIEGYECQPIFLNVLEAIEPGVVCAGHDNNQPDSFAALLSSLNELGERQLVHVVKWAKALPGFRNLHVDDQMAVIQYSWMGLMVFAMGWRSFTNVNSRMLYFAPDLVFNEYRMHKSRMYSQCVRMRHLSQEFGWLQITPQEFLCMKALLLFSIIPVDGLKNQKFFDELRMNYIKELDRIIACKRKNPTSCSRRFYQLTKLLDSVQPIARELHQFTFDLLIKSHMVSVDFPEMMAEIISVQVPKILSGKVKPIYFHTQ
Put plainly: Reporter assay of an androgen receptor responsive sequence (luciferase, transiently transfected HEK293 cells). It counts as cell-based. As to conditions: 24 hours incubation, relative to activity of 100 nM DHT, read-out: AR transcriptive activity (pEC50) (converted). Here is the method:
Reporter Assay of an Androgen Receptor Responsive Sequence
To examine the agonist activity of compounds for androgen, a reporter assay using an androgen receptor responsive sequence was conducted.
Using Lipofectamine 2000 (Invitrogen), a plasmid mixture (pGL4-ARE (200 ng/well), pcDNA3-hAR (20 ng/well), pRL-TK (Promega) (150 ng/well)) was transiently transfected into HEK293 cells. The contents of the plasmid (mixture) are as follows:
pGL4-ARE is a reporter plasmid containing firefly luciferase sequence under the control of androgen receptor responsive sequence; pcDNA3-hAR is a plasmid containing full-length sequence of human androgen receptor under the constant control of CMV promoter; pRL-TK is a plasmid containing Renilla Luciferase sequence under the control of herpes simplex virus thymidine kinase and used as an internal standard for evaluations of transfection efficiency and compound toxicity.
After the incubation of Lipofectamine 2000 and the plasmid mixture in Opti-MEM for 20 minutes, the mixture was mixed with a cell suspension prepared with Opti-MEM in the similar way, and the cell suspension was plated to a 96-well plate at 20000 cells/well. The transfection was conducted by incubating the plates under the condition of 5% CO2 at 37° C. for 3 hours. Three hours after the transfection, the culture medium was removed and a compound solution prepared by DMEM supplemented with 5% FBS and treated with charcoal was added, and the mixture was incubated under the condition of 5% CO2 at 37° C. for 24 hours. After the incubation with the compound, luciferase activities were measured with a luminometer using Dual-Glo™ Luciferase Assay System (Promega). The measurement of the luciferase activities was performed in accordance with the protocol recommended by Promega. The activity of the compound was determined by comparing to the activity of 100 nM of DHT, and quantified the logarithm value (pEC50) of reciprocal value of the effective concentration of the compound which is equal to 50% of the activity value by applying a 4 parameter goodness-of-fit calculation.
A general note: Reporter assays use an easily measured gene product as a stand-in for the process of interest.

As for `Cc1sc(N(Cc2cccc(C#N)c2)c2ccc(C#N)cc2)nc1C(=O)NS(C)(=O)=O` [Compound 9, 2-[4-cyano-N-[(3-cyanophenyl)methyl]anilino]-5-methyl-N-methylsulfonyl-thiazole-4-carboxamide], the EC50 in assay [1] is 100 nM; on human androgen receptor, 398 nM.

As to `Cc1sc(N(Cc2ccc(C#N)cc2)c2ccc(C#N)cc2)nc1C(=O)NS(C)(=O)=O` [Compound 10, 2-[4-cyano-N-[(4-cyanophenyl)methyl]anilino]-5-methyl-N-methylsulfonyl-thiazole-4-carboxamide], the figures for the EC50 (in assay [1]; at human androgen receptor) were 126 nM and 1000 nM, respectively.

On to `CSc1ccc(CN(c2ccc(C#N)cc2)c2nc(C(=O)NS(C)(=O)=O)c(C)s2)cc1` [Compound 11, 2-[4-cyano-N-[(4-methylsulfanylphenyl)methyl]anilino]-5-methyl-N-methylsulfonyl-thiazole-4-carboxamide], for which the EC50 was 25.1 nM in assay [1] and 50.1 nM on human androgen receptor.

Regarding `Cc1sc(N(Cc2ccc(S(C)(=O)=O)cc2)c2ccc(C#N)cc2)nc1C(=O)NS(C)(=O)=O` [Compound 12, 2-[4-cyano-N-[(4-methylsulfonylphenyl)methyl]anilino]-5-methyl-N-methylsulfonyl-thiazole-4-carboxamide], the EC50 in assay [1] was 316 nM; at human androgen receptor, more than 10000 nM.

With `Cc1sc(N(Cc2ccccc2F)c2ccc(C#N)cc2)nc1C(=O)NS(C)(=O)=O` [Compound 13, 2-[4-cyano-N-[(2-fluorophenyl)methyl]anilino]-5-methyl-N-methylsulfonyl-thiazole-4-carboxamide], the EC50 is 50.1 nM in assay [1] and 316 nM on human androgen receptor.

Take `Cc1sc(N(Cc2cccc(F)c2)c2ccc(C#N)cc2)nc1C(=O)NS(C)(=O)=O` [Compound 14, 2-[4-cyano-N-[(3-fluorophenyl)methyl]anilino]-5-methyl-N-methylsulfonyl-thiazole-4-carboxamide]: the EC50 in assay [1] is 79.4 nM; on human androgen receptor, 50.1 nM.

For the compound `Cc1sc(N(Cc2ccc(F)cc2)c2ccc(C#N)cc2)nc1C(=O)NS(C)(=O)=O` [Compound 15, 2-[4-cyano-N-[(4-fluorophenyl)methyl]anilino]-5-methyl-N-methylsulfonyl-thiazole-4-carboxamide], the EC50 in assay [1] was 63.1 nM; at human androgen receptor, 39.8 nM.

As to `Cc1cccc(CN(c2ccc(C#N)cc2)c2nc(C(=O)NS(C)(=O)=O)c(C)s2)c1` [Compound 16, 2-[4-cyano-N-(m-tolylmethyl)anilino]-5-methyl-N-methylsulfonyl-thiazole-4-carboxamide], the EC50 in assay [1] was 25.1 nM; on human androgen receptor, 31.6 nM.

In the case of `Cc1ccc(CN(c2ccc(C#N)cc2)c2nc(C(=O)NS(C)(=O)=O)c(C)s2)cc1` [Compound 17, 2-[4-cyano-N-(p-tolylmethyl)anilino]-5-methyl-N-methylsulfonyl-thiazole-4-carboxamide], the EC50 (in assay [1]; on human androgen receptor) was 25.1 nM in each case.

As to `Cc1sc(N(Cc2cccc(Cl)c2)c2ccc(C#N)cc2)nc1C(=O)NS(C)(=O)=O` [Compound 18, 2-[N-[(3-chlorophenyl)methyl]-4-cyano-anilino]-5-methyl-N-methylsulfonyl-thiazole-4-carboxamide], the EC50 in assay [1] was 25.1 nM; on human androgen receptor it was 50.1 nM.

Turning to `Cc1sc(N(CC2CCCC2)c2ccc(C#N)cc2)nc1C(=O)NS(C)(=O)=O` [Compound 19, 2-[4-cyano-N-(cyclopentylmethyl)anilino]-5-methyl-N-methylsulfonyl-thiazole-4-carboxamide], the results for the EC50 (in assay [1]; on human androgen receptor) were 158 nM and more than 10000 nM, respectively.

Regarding `Cc1sc(N(CCOc2ccccc2)c2ccc(C#N)cc2)nc1C(=O)NS(C)(=O)=O` [Compound 20, 2-[4-cyano-N-(2-phenoxyethyl)anilino]-5-methyl-N-methylsulfonyl-thiazole-4-carboxamide], the EC50 in assay [1] was 63.1 nM; at human androgen receptor, 1580 nM.

As to `Cc1sc(N(Cc2ccc(Cl)cc2)c2ccc(C#N)cc2)nc1C(=O)NS(C)(=O)=O` [Compound 23, 2-[N-[(4-chlorophenyl)methyl]-4-cyano-anilino]-5-methyl-N-methylsulfonyl-thiazole-4-carboxamide], the EC50 was 63.1 nM in assay [1] and 25.1 nM on human androgen receptor.

As for `Cc1sc(N(Cc2cccc(C(F)(F)F)c2)c2ccc(C#N)cc2)nc1C(=O)NS(C)(=O)=O` [Compound 24, 2-[4-cyano-N-[[3-(trifluoromethyl)phenyl]methyl]anilino]-5-methyl-N-methylsulfonyl-thiazole-4-carboxamide], the EC50 in assay [1] is 20 nM; on human androgen receptor, 200 nM.

For the compound `Cc1sc(N(Cc2ccc3ccccc3c2)c2ccc(C#N)cc2)nc1C(=O)NS(C)(=O)=O` [Compound 25, 2-[4-cyano-N-(2-naphthylmethyl)anilino]-5-methyl-N-methylsulfonyl-thiazole-4-carboxamide], the EC50 is 25.1 nM in assay [1] and 50.1 nM at human androgen receptor.

As for `Cc1sc(N(Cc2ccc3occc3c2)c2ccc(C#N)cc2)nc1C(=O)NS(C)(=O)=O` [Compound 26, 2-[N-(benzofuran-5-ylmethyl)-4-cyano-anilino]-5-methyl-N-methylsulfonyl-thiazole-4-carboxamide], the results for the EC50 (in assay [1]; on human androgen receptor) were 63.1 nM and 25.1 nM, respectively.

`Cc1sc(N(Cc2ccccc2)c2ccc(Cl)cc2)nc1C(=O)NS(C)(=O)=O` [Compound 31, 2-(N-benzyl-4-chloro-anilino)-5-methyl-N-methylsulfonyl-thiazole-4-carboxamide]: the figures for the EC50 (in assay [1]; on human androgen receptor) were 100 nM and 2510 nM, respectively.

On to `Cc1sc(N(Cc2ccccc2)c2ccc(OC(F)(F)F)cc2)nc1C(=O)NS(C)(=O)=O` [Compound 34, 2-[N-benzyl-4-(trifluoromethoxy)anilino]-5-methyl-N-methylsulfonyl-thiazole-4-carboxamide], for which the EC50 in assay [1] is 63.1 nM; on human androgen receptor it was 3160 nM.

As for `Cc1sc(N(Cc2ccccc2)c2ccc(Cl)c(Cl)c2)nc1C(=O)NS(C)(=O)=O` [Compound 37, 2-(N-benzyl-3,4-dichloro-anilino)-5-methyl-N-methylsulfonyl-thiazole-4-carboxamide], the results for the EC50 (in assay [1]; at human androgen receptor) were 50.1 nM and 1260 nM, respectively.

Turning to `Cc1sc(N(CC2CCC(F)(F)CC2)c2ccc(C#N)cc2)nc1C(=O)NS(C)(=O)=O` [Compound 39, 2-[4-cyano-N-[(4,4-difluorocyclohexyl)methyl]anilino]-5-methyl-N-methylsulfonyl-thiazole-4-carboxamide], the EC50 was 251 nM in assay [1] and 1260 nM at human androgen receptor.

Consider `Cc1nc(CN(c2ccc(C#N)cc2)c2nc(C(=O)NS(C)(=O)=O)c(C)s2)cs1` [Compound 40, 2-[4-cyano-N-[(2-methylthiazol-4-yl)methyl]anilino]-5-methyl-N-methylsulfonyl-thiazole-4-carboxamide], for which the EC50 in assay [1] is 1000 nM; on human androgen receptor it was 501 nM.
